The results in this text go back to patent publication US20220356174A1, “PYRIDIN-2-ONE COMPOUNDS USEFUL AS SMARCA2 ANTAGONISTS” (Epizyme, Inc., priority 2018, published 2022).

pIC50: −log10 of the molar value.

FL-SMARCA4, sequence (P51532 whole entry): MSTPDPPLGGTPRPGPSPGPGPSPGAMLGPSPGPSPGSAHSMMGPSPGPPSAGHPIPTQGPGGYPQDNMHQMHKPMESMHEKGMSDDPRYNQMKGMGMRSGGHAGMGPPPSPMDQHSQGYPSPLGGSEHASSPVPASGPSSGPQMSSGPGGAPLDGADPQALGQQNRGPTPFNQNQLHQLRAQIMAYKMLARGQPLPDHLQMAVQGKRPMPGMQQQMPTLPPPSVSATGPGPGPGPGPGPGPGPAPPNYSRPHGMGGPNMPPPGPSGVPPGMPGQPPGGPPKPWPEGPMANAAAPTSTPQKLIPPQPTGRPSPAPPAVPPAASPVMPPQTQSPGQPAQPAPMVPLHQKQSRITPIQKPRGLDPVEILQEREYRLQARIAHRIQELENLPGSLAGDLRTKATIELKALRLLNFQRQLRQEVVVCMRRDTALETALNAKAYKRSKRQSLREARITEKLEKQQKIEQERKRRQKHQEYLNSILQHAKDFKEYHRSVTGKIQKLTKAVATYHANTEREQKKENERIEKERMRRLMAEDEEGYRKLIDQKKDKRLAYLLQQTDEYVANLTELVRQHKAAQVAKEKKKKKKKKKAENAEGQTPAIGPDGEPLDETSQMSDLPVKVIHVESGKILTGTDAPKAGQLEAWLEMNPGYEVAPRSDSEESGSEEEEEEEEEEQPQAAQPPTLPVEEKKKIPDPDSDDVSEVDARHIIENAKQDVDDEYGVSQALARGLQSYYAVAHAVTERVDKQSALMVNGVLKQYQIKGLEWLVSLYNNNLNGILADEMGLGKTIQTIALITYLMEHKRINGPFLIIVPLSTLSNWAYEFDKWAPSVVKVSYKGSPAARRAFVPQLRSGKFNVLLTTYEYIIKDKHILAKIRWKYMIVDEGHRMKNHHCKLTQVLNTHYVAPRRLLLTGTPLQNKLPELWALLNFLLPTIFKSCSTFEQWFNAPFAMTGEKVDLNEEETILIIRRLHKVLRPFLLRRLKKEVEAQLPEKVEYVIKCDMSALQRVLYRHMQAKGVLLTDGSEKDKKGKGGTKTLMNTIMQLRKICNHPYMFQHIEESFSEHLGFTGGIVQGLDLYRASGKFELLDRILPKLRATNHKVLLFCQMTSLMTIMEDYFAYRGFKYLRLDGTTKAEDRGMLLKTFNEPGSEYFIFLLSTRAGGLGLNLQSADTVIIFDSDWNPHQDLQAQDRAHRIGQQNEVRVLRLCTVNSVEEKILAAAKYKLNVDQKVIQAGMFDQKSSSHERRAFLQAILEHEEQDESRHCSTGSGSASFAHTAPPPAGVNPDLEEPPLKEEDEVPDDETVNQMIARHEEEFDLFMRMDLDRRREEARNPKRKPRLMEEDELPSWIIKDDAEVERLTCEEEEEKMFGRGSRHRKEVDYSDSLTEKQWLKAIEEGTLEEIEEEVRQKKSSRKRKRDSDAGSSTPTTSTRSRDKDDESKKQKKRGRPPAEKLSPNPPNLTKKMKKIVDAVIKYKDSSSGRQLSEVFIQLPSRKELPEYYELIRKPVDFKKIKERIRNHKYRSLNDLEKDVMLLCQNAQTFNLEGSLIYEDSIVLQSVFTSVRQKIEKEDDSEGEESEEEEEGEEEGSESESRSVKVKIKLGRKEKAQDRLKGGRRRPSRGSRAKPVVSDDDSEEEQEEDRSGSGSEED

In the first assay the test system is A549 cells. The experiment in a line: High-throughput proliferation (HTP) assay for A549 cells (CellTiter-Glo, 7 days). In kind it is cell-based. The note with it: Homo sapiens, 168 h, read-out: A549 SMARCA2 IC50. As for the experimental part:
Thawing vials: A549 cells (ATCC #CCL-185™) were thawed from a cryovial containing approximately 1.6×10^6 cells frozen in 70% F12K medium, 20% HI-FBS and 10% DMSO. Cells were thawed by submerging the bottom half of the vial in a 37° C. water bath and gently flicked until almost thawed. The cells were transferred into a 15 mL conical tube containing 9 mL of F12K medium+10% HI-FBS and then centrifuged at 200×g for 4 min before drawing off the media without disturbing the cell pellet in order to remove the DMSO. The cells were resuspended again in 15 mL of F12K fresh complete media+10% HI-FBS and grown up in a T75 flask at 37° C. with 5% CO2 Incubator. Viability was measured to obtain baseline.
Frozen stock vials preparation: The cell culture was transferred to a 50 mL conical tube, spun down to remove medium, and resuspended at 1-2×10^6 cells/mL in complete medium containing 10% DMSO. The culture was then stored for 24 hours at −80 degree C., (with the initial rate of freezing is −1 degree C. per minute in a freezing container), then transferred and stored in liquid nitrogen.
(§1) Routine subculture: Sub-confluent cultures (70-80%) were split every 4 days, seeding out at 1-2×10^6 cells/75 cm^2.
Day 0: Assay ready plates were prepared by dispensing 50 nL of compound or DMSO in the appropriate wells of 384-well white CulturPlates using Echo550. Using the Multiflo, A549 cells were plated at 50 μL/well in F12K complete media+10% HI-FBS+1% pen/strep at cell density determined [1,250 cells/mL (62.5 cells/well)] from growth curve.
Treated cells were incubated at 37° C., 5% CO2, relative humidity >90% for 7 days. CellTiter-Glo (CTG) ATP detection reagent was prepared according to manufacturer's specifications. Cell assay plates were removed from the incubator and brought to room temperature (RT). Using the MultiDrop liquid handler, 30 μL of CTG were added per well. Plates were placed on the multidrop dispenser shake for 5 seconds at room temperature (RT). Plates were incubated for 30 minutes in the dark at RT before measuring luminescence using the Envison2104.
Data analysis: Using the DMSO control wells as the 0% inhibition (high signal) control and the 10 μM Doxorubicin control wells as the 100% inhibition (low signal) control, percent inhibition EC50s (inflection point) and IC50 s were calculated for the compound dose responses.
`Cc1nsc(C#Cc2cc(C(=O)Nc3cc(F)c(=O)n(CC(F)F)c3)sc2Cl)n1` [Compound 139c]: the pIC50 is 6.19.
Still for that read-out and setting: the result for `O=C(Nc1cc(F)c(=O)n(CC(F)F)c1)c1cc(C#C[C@H]2CCOC2)c(Cl)s1` [Compound 78c] reads 5.80; that for `N#Cc1cc(C(=O)Nc2cc(C#N)c(=O)n(CC(F)F)c2)sc1C(F)(F)F` [Compound 56d], 5.20; that for `CN1CCCC(C#Cc2sc(C(=O)Nc3cc(F)c(=O)n(CC(F)F)c3)cc2Cl)C1` (stereo not shown) [Compound 132d], 5.10.
As to `CC(=O)Nc1cc(C#Cc2cc(C(=O)Nc3cc(F)c(=O)n(CC(F)F)c3)sc2Cl)ccn1` [Compound 143c], the pIC50 is 6.34.
Turning to `CNC(=O)c1cc(C#Cc2cc(C(=O)Nc3cc(F)c(=O)n(CC(F)F)c3)sc2Cl)ccn1` [Compound 130c], the pIC50 is 5.92.
On the same count and under the same terms, the result for `O=C(Nc1cc(F)c(=O)n(CC(F)F)c1)c1cc(-c2ccco2)c(Cl)s1` [Compound 112d] reads 5.00; that for `Cc1cc(C#Cc2cc(C(=O)Nc3cc(C#N)c(=O)n(CC(F)F)c3)sc2Cl)sn1` [Compound 92d], 5.70; that for `Cc1nnc(C#Cc2cc(C(=O)Nc3cc(F)c(=O)n(CC(F)F)c3)sc2Cl)[nH]1` [Compound 127c], less than 5.00.
On the same count and under the same terms, the result for `O=C(Nc1cc(F)c(=O)n(CC(F)F)c1)c1cc(C#Cc2ccnc(-c3ncco3)c2)c(Cl)s1` [Compound 150c] reads 6.03.
On the same count and under the same terms, the result for `O=C(Nc1cc(Cl)c(=O)n(CC(F)F)c1)c1cc(Cl)c(C(F)(F)F)s1` [Compound 79d] reads 5.44; that for `O=C(Nc1cc(F)c(=O)n(CC(F)F)c1)c1cc(F)c(C(F)(F)F)s1` [Compound 25c], 6.21.
Take `Cn1cncc1C#Cc1cc(C(=O)Nc2cc(F)c(=O)n(CC(F)F)c2)sc1Cl` [Compound 330]: the pIC50 is less than 5.00.

In the next assay the target is T1, FL-SMARCA2 (full-length human SMARCA2 isoform 1) (Homo sapiens, UniProt P51531).
T1 construct: FLAG tag (YKDDDDK) (C); made in house; host or cells: Sf21 insect cells (baculovirus, pFastBacI)
T1 sequence (P51531 with tags, fused parts or gaps): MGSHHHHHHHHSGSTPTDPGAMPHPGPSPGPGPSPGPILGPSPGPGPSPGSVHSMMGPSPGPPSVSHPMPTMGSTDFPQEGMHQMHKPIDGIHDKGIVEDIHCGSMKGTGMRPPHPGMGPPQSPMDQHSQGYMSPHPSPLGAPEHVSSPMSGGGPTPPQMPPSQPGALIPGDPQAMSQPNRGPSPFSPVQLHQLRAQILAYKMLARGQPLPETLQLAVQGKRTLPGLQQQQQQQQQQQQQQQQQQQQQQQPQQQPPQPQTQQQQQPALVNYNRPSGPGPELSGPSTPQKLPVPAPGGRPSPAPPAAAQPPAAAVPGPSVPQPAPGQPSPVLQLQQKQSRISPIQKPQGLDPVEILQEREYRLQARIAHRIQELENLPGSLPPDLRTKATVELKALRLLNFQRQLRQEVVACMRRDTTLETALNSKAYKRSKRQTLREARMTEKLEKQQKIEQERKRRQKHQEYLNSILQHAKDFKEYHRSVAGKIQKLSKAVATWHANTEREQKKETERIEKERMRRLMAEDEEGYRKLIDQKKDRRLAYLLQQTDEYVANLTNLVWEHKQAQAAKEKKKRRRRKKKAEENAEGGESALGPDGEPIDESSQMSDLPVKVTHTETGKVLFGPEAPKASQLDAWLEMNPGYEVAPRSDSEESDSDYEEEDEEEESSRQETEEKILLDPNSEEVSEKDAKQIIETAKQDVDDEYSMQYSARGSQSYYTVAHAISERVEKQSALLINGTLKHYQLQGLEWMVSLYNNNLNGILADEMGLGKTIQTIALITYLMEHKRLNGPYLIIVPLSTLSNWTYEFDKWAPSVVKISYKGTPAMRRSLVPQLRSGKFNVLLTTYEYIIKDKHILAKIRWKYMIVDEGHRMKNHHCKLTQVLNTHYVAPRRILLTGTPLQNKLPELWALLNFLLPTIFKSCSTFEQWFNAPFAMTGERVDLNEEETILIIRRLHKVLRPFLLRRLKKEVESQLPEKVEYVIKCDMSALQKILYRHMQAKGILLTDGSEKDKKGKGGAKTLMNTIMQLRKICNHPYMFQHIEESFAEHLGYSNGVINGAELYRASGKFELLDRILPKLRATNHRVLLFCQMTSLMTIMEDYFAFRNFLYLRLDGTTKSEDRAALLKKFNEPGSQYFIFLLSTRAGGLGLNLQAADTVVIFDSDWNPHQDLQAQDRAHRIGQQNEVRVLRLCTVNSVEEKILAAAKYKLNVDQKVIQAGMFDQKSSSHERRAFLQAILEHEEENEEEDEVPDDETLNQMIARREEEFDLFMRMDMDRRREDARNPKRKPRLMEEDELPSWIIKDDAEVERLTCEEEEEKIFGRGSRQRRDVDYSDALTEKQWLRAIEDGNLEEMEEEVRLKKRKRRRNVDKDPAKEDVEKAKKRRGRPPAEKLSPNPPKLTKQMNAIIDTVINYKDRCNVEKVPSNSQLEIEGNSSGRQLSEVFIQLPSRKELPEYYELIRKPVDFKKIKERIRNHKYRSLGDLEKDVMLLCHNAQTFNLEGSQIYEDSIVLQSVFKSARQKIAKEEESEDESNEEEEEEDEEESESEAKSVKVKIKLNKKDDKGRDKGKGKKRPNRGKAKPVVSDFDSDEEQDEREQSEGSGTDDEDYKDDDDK
Put plainly: SMARCA2 ATPase activity assay (ADP-Glo, chicken mononucleosome substrate). It counts as biochemical. The note with it: Table 3c.1; ATPase assay, enzyme 5 nM, ATP 250 uM, chicken mononucleosome 10 nM, 30 min preincubation.
As for `Cc1nsc(C#Cc2cc(C(=O)Nc3cc(F)c(=O)n(CC(F)F)c3)sc2Cl)n1` [Compound 139c], the pIC50 was 7.22.
Same read-out and setting: then `O=C(Nc1cc(F)c(=O)n(CC(F)F)c1)c1cc(C#C[C@H]2CCOC2)c(Cl)s1` [Compound 78c], with 7.01.
The same measure, in the same setting: then `CC(=O)Nc1cc(C#Cc2cc(C(=O)Nc3cc(F)c(=O)n(CC(F)F)c3)sc2Cl)ccn1` [Compound 143c], with 8.22; and `CNC(=O)c1cc(C#Cc2cc(C(=O)Nc3cc(F)c(=O)n(CC(F)F)c3)sc2Cl)ccn1` [Compound 130c], with 7.78.
Still for that read-out and setting: the result for `Cc1nnc(C#Cc2cc(C(=O)Nc3cc(F)c(=O)n(CC(F)F)c3)sc2Cl)[nH]1` [Compound 127c] reads 6.45; that for `O=C(Nc1cc(F)c(=O)n(CC(F)F)c1)c1cc(F)c(C(F)(F)F)s1` [Compound 25c], 7.85.

Still in this assay, the particulars now being: Table 3d.1; ATPase assay, enzyme 5 nM, ATP 250 uM, chicken mononucleosome 10 nM, 30 min preincubation; read-out: FL-SMARCA2 IC>50.
Turning to `N#Cc1cc(C(=O)Nc2cc(C#N)c(=O)n(CC(F)F)c2)sc1C(F)(F)F` [Compound 56d], the pIC50 was 7.01.
As for `CN1CCCC(C#Cc2sc(C(=O)Nc3cc(F)c(=O)n(CC(F)F)c3)cc2Cl)C1` (stereo not shown) [Compound 132d], the pIC50 was less than 4.30.
Same read-out and setting: then `O=C(Nc1cc(F)c(=O)n(CC(F)F)c1)c1cc(-c2ccco2)c(Cl)s1` [Compound 112d], with 6.46; and `Cc1cc(C#Cc2cc(C(=O)Nc3cc(C#N)c(=O)n(CC(F)F)c3)sc2Cl)sn1` [Compound 92d], with 7.50.
Same read-out and setting: then `O=C(Nc1cc(Cl)c(=O)n(CC(F)F)c1)c1cc(Cl)c(C(F)(F)F)s1` [Compound 79d], with 7.36.

Another assay concerns the target FL-SMARCA4 (Homo sapiens, UniProt P51532). Put plainly: SMARCA4 ATPase activity assay (ADP-Glo, chicken mononucleosome substrate). The settings on record: FL-SMARCA4 IC50.
For `N#Cc1cc(C(=O)Nc2cc(C#N)c(=O)n(CC(F)F)c2)sc1C(F)(F)F` [Compound 56d], the pIC50 was 6.27.
On the same count and under the same terms, the result for `CN1CCCC(C#Cc2sc(C(=O)Nc3cc(F)c(=O)n(CC(F)F)c3)cc2Cl)C1` (stereo not shown) [Compound 132d] reads less than 4.30; that for `O=C(Nc1cc(F)c(=O)n(CC(F)F)c1)c1cc(-c2ccco2)c(Cl)s1` [Compound 112d], 5.67; that for `Cc1cc(C#Cc2cc(C(=O)Nc3cc(C#N)c(=O)n(CC(F)F)c3)sc2Cl)sn1` [Compound 92d], 6.81.

The assay is the same for the next values; noted with them: FL-SMARCA4 IC>50, Table 3c.2; ATPase assay, enzyme 5 nM, ATP 250 uM, chicken mononucleosome 10 nM, 30 min preincubation.
The compound `Cc1nsc(C#Cc2cc(C(=O)Nc3cc(F)c(=O)n(CC(F)F)c3)sc2Cl)n1` [Compound 139c] gave a pIC50 of 6.73.
On the same count and under the same terms, the result for `O=C(Nc1cc(F)c(=O)n(CC(F)F)c1)c1cc(C#C[C@H]2CCOC2)c(Cl)s1` [Compound 78c] reads 6.59; that for `CC(=O)Nc1cc(C#Cc2cc(C(=O)Nc3cc(F)c(=O)n(CC(F)F)c3)sc2Cl)ccn1` [Compound 143c], 8.09.
Still for that read-out and setting: then `CNC(=O)c1cc(C#Cc2cc(C(=O)Nc3cc(F)c(=O)n(CC(F)F)c3)sc2Cl)ccn1` [Compound 130c], with 7.36; and `O=C(Nc1cc(F)c(=O)n(CC(F)F)c1)c1cc(C#Cc2ccnc(-c3ncco3)c2)c(Cl)s1` [Compound 150c], with 7.84.

The next assay has as its system H358 cells. Put plainly: High-throughput proliferation (HTP) assay for H358 cells (CellTiter-Glo, 7 days). It counts as cell-based. The note with it: Homo sapiens, NCI-H358, 168 h, read-out: H358 SMARCA2 IC50. As for the experimental part:
Thawing vials: H358 cells (ATCC #CRL-5807™) were thawed from a cryovial containing approximately 1.6×10^6 cells frozen in 70% RPMI 1640 medium, 20% HI-FBS and 10% DMSO. Cells were thawed by submerging the bottom half of the vial in a 37° C. water bath and gently flicked until almost thawed. The cells were removed and transferred into a 15 mL conical tube containing 9 mL RPMI 1640 medium+10% HI-FBS and then centrifuged 200×g for 4 min before drawing off the media without disturbing the cell pellet to remove the DMSO. The cells were resuspended again in 15 mL of RPMI 1640 fresh complete media+10% HI-FBS and grown up in a T75 flask at 37° C. with 5% CO2 Incubator. Viability was measured to obtain baseline.
Preparing frozen stock vials: Cell density was counted in a stock flask. The culture was transferred to a 50 mL conical tube and spun down to remove medium, and then resuspend at 1-2×10^6 cells/mL in complete medium containing 10% DMSO and transferred to a 1 mL per vial.
as §1
Day 0: Assay ready plates were prepared by dispensing 50 nL of compound stock or DMSO in the appropriate wells of 384-well white CulturPlates using Echo550. Using the Multiflo, H358 cells at 50 μL/well were plated in RPMI 1640 complete media+10% HI-FBS+1% pen/strep at cell density determined [20,000 cells/mL (1,000 cells/well)] from growth curve. Treated cells were inclubated at 37° C., 5% CO2, relative humidity >90% for 7 days. CellTiter-Glo (CTG) ATP detection reagent was prepared according to manufacturer's specifications. Cell assay plates were removed from incubator and bring to room temperature (RT).
Using the MultiDrop liquid handler, 30 μL of CTG were added per well. Plates were placed on the multidrop dispenser shake for 5 seconds at RT. Plates were incubated for 30 minutes in the dark at RT before measuring luminescence using the Envison2104.
Data analysis: Using the DMSO control wells as the 0% inhibition (high signal) control and the 10 uM Doxorubicin control wells as the 100% inhibition (low signal) control, percent inhibition EC50s (inflection point) and IC50s were calculated for the compound dose responses.
Turning to `Cc1nsc(C#Cc2cc(C(=O)Nc3cc(F)c(=O)n(CC(F)F)c3)sc2Cl)n1` [Compound 139c], the pIC50 is 6.26.
On the same count and under the same terms, then `O=C(Nc1cc(F)c(=O)n(CC(F)F)c1)c1cc(C#C[C@H]2CCOC2)c(Cl)s1` [Compound 78c], with less than 5.00; and `N#Cc1cc(C(=O)Nc2cc(C#N)c(=O)n(CC(F)F)c2)sc1C(F)(F)F` [Compound 56d], with less than 5.00; and `CN1CCCC(C#Cc2sc(C(=O)Nc3cc(F)c(=O)n(CC(F)F)c3)cc2Cl)C1` (stereo not shown) [Compound 132d], with less than 5.00.
With `CC(=O)Nc1cc(C#Cc2cc(C(=O)Nc3cc(F)c(=O)n(CC(F)F)c3)sc2Cl)ccn1` [Compound 143c], the pIC50 was less than 5.00.
Still for that read-out and setting: then `CNC(=O)c1cc(C#Cc2cc(C(=O)Nc3cc(F)c(=O)n(CC(F)F)c3)sc2Cl)ccn1` [Compound 130c], with less than 5.00; and `O=C(Nc1cc(F)c(=O)n(CC(F)F)c1)c1cc(-c2ccco2)c(Cl)s1` [Compound 112d], with less than 5.00.
The same measure, in the same setting: then `Cc1cc(C#Cc2cc(C(=O)Nc3cc(C#N)c(=O)n(CC(F)F)c3)sc2Cl)sn1` [Compound 92d], with less than 5.00.
Still for that read-out and setting: the result for `Cc1nnc(C#Cc2cc(C(=O)Nc3cc(F)c(=O)n(CC(F)F)c3)sc2Cl)[nH]1` [Compound 127c] reads less than 5.00; that for `O=C(Nc1cc(F)c(=O)n(CC(F)F)c1)c1cc(C#Cc2ccnc(-c3ncco3)c2)c(Cl)s1` [Compound 150c], less than 5.00.
Take `O=C(Nc1cc(Cl)c(=O)n(CC(F)F)c1)c1cc(Cl)c(C(F)(F)F)s1` [Compound 79d]: the pIC50 is less than 5.00.
The same measure, in the same setting: the result for `O=C(Nc1cc(F)c(=O)n(CC(F)F)c1)c1cc(F)c(C(F)(F)F)s1` [Compound 25c] reads less than 5.00; that for `Cn1cncc1C#Cc1cc(C(=O)Nc2cc(F)c(=O)n(CC(F)F)c2)sc1Cl` [Compound 330], 5.06.
